Bridge positions count the residues as written; N and C are the ends. Ends that are not written are not given here.
How the values were obtained:
BALB/c mice = experiment: Toxicity and movement activity after i.v. injection; conditions: for Movement Activities: BALB/c (around 20 gm) mice, i.v. single dose 75 μl of 1 mM, within 30 minutes; for toxicity by mouse movements: BALB/c mice, i.v. single dose 75 μl of 1 mM per mouse, movements within 30 minutes, observed up to one week
Description: To design a MTD peptide anti-cancer drug, the MTD peptide was fused to various known tumor-homing motifs through its N-terminal or C-terminal region, and a linker was introduced between these two motifs to impart flexibility and minimize steric hindrance (Figure 1A, Supplementary Table S1). The MTD peptides fused with tumor-homing motifs (hereafter designated TU:MTDs) were synthesized as linear or cyclic entities using L-amino acids (Supplementary Table S1), and were evaluated for their killing activity using CT26 cells in vitro (Supplementary Figure S1). […] Thus, BALB/c mouse movements were also evaluated within 30 minutes of the intravenous injection of a single dose of 75 μl of 1 mM TU:MTDs per mouse. […] We also searched for a TU:MTD with a potent in vivo effect by observing tumor volumes in three BALB/c mice bearing CT26 adenocarcinoma that were injected with 100 μl of 1 mM TU:MTDs per day for 2 or 3 consecutive days (Figure 1B). […] The tumor-homing motif of TU17:MTD has a “RPARPAR” sequence containing the C-end rule (CendR) element that has known to bind to neuropilin-1 (NRP-1), although the “RPARPAR” sequence is located at the N-terminus of the MTD rather than at the C-terminus. […]
1 mM) were i.v. injected into BALB/c (around 20 gm) mice at a single dose. “Slow” means not moving around in the cage.
“Normal” means normally moving around in the cage. “Toxic” means necrosis in tail vein within 2 ~ 3 days after injection.
Abbreviation: NR; no regression, ND; not determined. […]

CT26 cells = experiment: XTT cell viability / killing activity in CT26 cells; assay type: cell-based; conditions: CT26 cells in vitro, TU:MTDs 0 ~ 20 μM, 30 minutes
Description: Figure 1 Identification of TU17:MTD as a tumor targeting peptide (A) Schematic diagram of the fusion peptides consisting of the tumor-homing motif, linker, and mitochondrial targeting domain (MTD). (B) Tumors were generated over 2 weeks after s.c. injection of CT26 cells into the backs of BALB/c mice. When tumor volumes reached palpable size, the indicated TU:MTDs (100 μl of 1 mM TU:MTDs) or PBS were administrated i.v. twice or three times. […] Arrows indicate the points of peptide injection. P values < 0.02 (control group vs TU17:MTD at day 5, 6, 7, 8, and 9) (C) HCT116, HeLa, A549, MCF-7, PC3, and BJAB cells were treated with TU17:MTD (0 ~ 20 μM) for 30 minutes, and cell viability was monitored using XTT assays. *P < 0.05 (D) Primary splenocytes and macrophages were treated with TU17:MTD (0 ~ 20 μM) for 30 minutes, and cell viability was monitored by XTT assay. *P < 0.05 (E) CT26 cells were treated with R8:MTD, TU17:MTD, TU17-2:MTD or TU17:MTD^4A (0 ~ 40 μM) for 4 hours, and cell viability was monitored by XTT assay. Results in C to E are expressed as means ± SD (triplicates), and are representative of at least two independent experiments. P values are for experimental groups versus controls and were calculated using Dunnett's t-test. *P < 0.05.
Figure 5 Anti-NRP-1 antibody blocks TU17:MTD-induced necrosis (A) CT26 cells (2 × 10^4 cells/cm^2) were treated with TU17:MTD-FAM (500 nM) peptide or TU17^mut:MTD (500 nM) peptide. […] The viability was measured by using the XTT assay. *P < 0.05, **P < 0.01. […] The percentage of FAM-positive cells (%) were determined (n = over 200 cells). *P < 0.05, ***P < 0.001.
Cells were cultured in 96 well plates (2 × 10^5) overnight and treated with TU:MTDs. Cell viabilities were assessed using a XTT-based colorimetric assay kit, according to the manufacturer's instructions. […]
Supplementary FigureS1: Killing activity of TU:MTDs in CT26 cells. CT26 cells were treated with TU:MTDs (0 ~ 20 μM) for 30 minutes, and cell viability was monitored using XTT assays. […]

For “CNGRCVSGCAGRCGGKLLNLISKLF [TU2:MTD, MTD peptide fused with tumor-homing motif, linear]”, the “Movement Activities” value (BALB/c mice) was “Normal”, the “toxicity by mouse movements” value (BALB/c mice) was “no apparent toxicities” and the “morphological features of necrosis” value (CT26 cells) was “induced the typical morphological features of necrosis”.
For “KLLNLISKLFCRGDKRLYDC (disulfide 11-20 (inferred)) [TU11:MTD]”, the “Movement Activities” value (BALB/c mice) was “Slow”, the “toxicity by mouse movements” value (BALB/c mice) was “toxic” and the “morphological features of necrosis” value (CT26 cells) was “induced the typical morphological features of necrosis”.
